These are literature values, as cited in patent US20190046547A1, “COMPOSITIONS AND METHODS FOR TREATING CHRONIC WOUNDS” (Hackensack University Medical Center, priority 2016, published 2019).

In the data set the test system is infected pneumonectomy cavity. As to conditions: single case.

For the compound `OC[C@H]1O[C@@](CO)(O[C@H]2O[C@H](CO)[C@@H](O)[C@H](O)[C@H]2O)[C@@H](O)[C@@H]1O` [granulated sugar], the adverse events entry is “severe hyponatremia and acute renal failure”.
